The supplement of paper PMC11551840

Tests used:
Experiment in all cases: IC50 (cell viability, 72 h) (ln(µM))
[1] = test system: BICR10
Description: (§1)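 Discovery screen of OSCC cell lines in 1,536-well plates. Cells were treated 24 h after seeding with 7 concentrations spanning a 1,000-fold half-log range for 72 h, and viability was read by CellTiter-Glo 2.0 and normalised to DMSO (1) and medium-only (0) controls. IC50 comes from a two-parameter logistic nonlinear mixed-effects fit and is reported as natural log of IC50 in µM.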

[2] = test system: HO-1-u-1
Description: as §1

[3] = test system: HSC-2
Description: as §1

[4] = test system: HSC-4
Description: as §1

[5] = test system: ORL-115
Description: as §1

[6] = test system: ORL-136
Description: as §1

[7] = test system: ORL-150
Description: as §1

[8] = test system: ORL-153
Description: as §1

[9] = test system: ORL-156
Description: as §1

[10] = test system: ORL-166
Description: as §1

[11] = test system: ORL-174
Description: as §1

[12] = test system: ORL-188
Description: as §1

[13] = test system: ORL-195
Description: as §1

[14] = test system: ORL-204
Description: as §1

[15] = test system: ORL-207
Description: as §1

[16] = test system: ORL-214
Description: as §1

[17] = test system: ORL-215
Description: as §1

[18] = test system: ORL-48
Description: as §1

[19] = test system: PE-CA-PJ15
Description: as §1

[20] = test system: SAS
Description: as §1

[21] = test system: SCC-9
Description: as §1

## Cc1cc(-c2nc(-c3ccc(OC(F)(F)F)cc3)no2)nn1Cc1ccnc(N2CCN(C3CC3)CC2)c1 [BAY-87-2243]
[1]
  IC50 (ln): -1.01
[2]
  IC50 (ln): -1.24
[3]
  IC50 (ln): -1.04
[4]
  IC50 (ln): -5.92
[5]
  IC50 (ln): -5.09
[6]
  IC50 (ln): -0.901
[7]
  IC50 (ln): -2.36
[8]
  IC50 (ln): -0.683
[9]
  IC50 (ln): -0.734
[10]
  IC50 (ln): -2.29
[11]
  IC50 (ln): -0.785
[12]
  IC50 (ln): -0.131
[13]
  IC50 (ln): -1.57
[14]
  IC50 (ln): -2.77
[15]
  IC50 (ln): -2.38
[16]
  IC50 (ln): -0.338
[17]
  IC50 (ln): -2.31
[18]
  IC50 (ln): -1.95
[19]
  IC50 (ln): -1.76
[20]
  IC50 (ln): -3.51
[21]
  IC50 (ln): -3.5

## CC[C@@H]1C(=O)N(C)c2cnc(Nc3ccc(C(=O)NC4CCN(C)CC4)cc3OC)nc2N1C1CCCC1 [BI-2536]
[1]
  IC50 (ln): -2.78
[2]
  IC50 (ln): -2.33
[3]
  IC50 (ln): -2.87
[4]
  IC50 (ln): -1.33
[5]
  IC50 (ln): -2.1
[6]
  IC50 (ln): 1.66
[7]
  IC50 (ln): -3.5
[8]
  IC50 (ln): -2.08
[9]
  IC50 (ln): -2.91
[10]
  IC50 (ln): -3.02
[11]
  IC50 (ln): -2.58
[12]
  IC50 (ln): -2.94
[13]
  IC50 (ln): -2.26
[14]
  IC50 (ln): -0.226
[15]
  IC50 (ln): -2.92
[16]
  IC50 (ln): -2.28
[17]
  IC50 (ln): -3.45
[18]
  IC50 (ln): -1.8
[19]
  IC50 (ln): -0.628
[20]
  IC50 (ln): -1.93
[21]
  IC50 (ln): 0.0591

## CC(C)C[C@H](NC(=O)[C@H](Cc1ccccc1)NC(=O)c1cnccn1)B(O)O [Bortezomib]
[1]
  IC50 (ln): -4.95
[2]
  IC50 (ln): -5.69
[3]
  IC50 (ln): -5.55
[4]
  IC50 (ln): -4.5
[5]
  IC50 (ln): -4.36
[6]
  IC50 (ln): -4.79
[7]
  IC50 (ln): -4.88
[8]
  IC50 (ln): -4.84
[9]
  IC50 (ln): -4.46
[10]
  IC50 (ln): -5.43
[11]
  IC50 (ln): -5.44
[12]
  IC50 (ln): -5.03
[13]
  IC50 (ln): -5.04
[14]
  IC50 (ln): -4.52
[15]
  IC50 (ln): -5.3
[16]
  IC50 (ln): -5.37
[17]
  IC50 (ln): -5.32
[18]
  IC50 (ln): -4.47
[19]
  IC50 (ln): -4.28
[20]
  IC50 (ln): -5.88
[21]
  IC50 (ln): -4.18

## CC[C@@]1(O)C(=O)OCc2c1cc1n(c2=O)Cc2cc3ccccc3nc2-1 [Camptothecin]
[1]
  IC50 (ln): -1.45
[2]
  IC50 (ln): -0.864
[3]
  IC50 (ln): -4
[4]
  IC50 (ln): -3.06
[5]
  IC50 (ln): -1.73
[6]
  IC50 (ln): -1.37
[7]
  IC50 (ln): -3.04
[8]
  IC50 (ln): -3.34
[9]
  IC50 (ln): -2.15
[10]
  IC50 (ln): -3.18
[11]
  IC50 (ln): -2.91
[12]
  IC50 (ln): -3.95
[13]
  IC50 (ln): -2.2
[14]
  IC50 (ln): -3.82
[15]
  IC50 (ln): -4.09
[16]
  IC50 (ln): -4.76
[17]
  IC50 (ln): -2.87
[18]
  IC50 (ln): -2.57
[19]
  IC50 (ln): -2.24
[20]
  IC50 (ln): -4.38
[21]
  IC50 (ln): 1.24

## Cc1c2oc3c(C)ccc(C(=O)N[C@@H]4C(=O)N[C@H](C(C)C)C(=O)N5CCC[C@H]5C(=O)N(C)CC(=O)N(C)[C@@H](C(C)C)C(=O)O[C@@H]4C)c3nc-2c(C(=O)N[C@@H]2C(=O)N[C@H](C(C)C)C(=O)N3CCC[C@H]3C(=O)N(C)CC(=O)N(C)[C@@H](C(C)C)C(=O)O[C@@H]2C)c(N)c1=O [Dactinomycin]
[1]
  IC50 (ln): -3.88
[2]
  IC50 (ln): -5.18
[3]
  IC50 (ln): -5.7
[4]
  IC50 (ln): -3.96
[5]
  IC50 (ln): -4.09
[6]
  IC50 (ln): -4.38
[7]
  IC50 (ln): -5.32
[8]
  IC50 (ln): -6.27
[9]
  IC50 (ln): -5.7
[10]
  IC50 (ln): -6.04
[11]
  IC50 (ln): -5.84
[12]
  IC50 (ln): -5.69
[13]
  IC50 (ln): -5.67
[14]
  IC50 (ln): -4.99
[15]
  IC50 (ln): -5.32
[16]
  IC50 (ln): -5.57
[17]
  IC50 (ln): -4.6
[18]
  IC50 (ln): -5.43
[19]
  IC50 (ln): -4.55
[20]
  IC50 (ln): -4.65
[21]
  IC50 (ln): -2.9

## CCc1cnn2c(NCc3ccc[n+]([O-])c3)cc(N3CCCC[C@H]3CCO)nc12 [Dinaciclib]
[1]
  IC50 (ln): -2.5
[2]
  IC50 (ln): -3.83
[3]
  IC50 (ln): -4.36
[4]
  IC50 (ln): -3.41
[5]
  IC50 (ln): -4.03
[6]
  IC50 (ln): -2.65
[7]
  IC50 (ln): -3.93
[8]
  IC50 (ln): -3.5
[9]
  IC50 (ln): -4.06
[10]
  IC50 (ln): -4.64
[11]
  IC50 (ln): -4.02
[12]
  IC50 (ln): -4.08
[13]
  IC50 (ln): -3.57
[14]
  IC50 (ln): -3.8
[15]
  IC50 (ln): -3.83
[16]
  IC50 (ln): -4.09
[17]
  IC50 (ln): -4.15
[18]
  IC50 (ln): -3.44
[19]
  IC50 (ln): -3.29
[20]
  IC50 (ln): -4.47
[21]
  IC50 (ln): -1.35

## CC(=O)O[C@@]12CO[C@@H]1C[C@H](O)[C@@]1(C)C(=O)[C@H](O)C3=C(C)[C@@H](OC(=O)[C@H](O)[C@@H](NC(=O)OC(C)(C)C)c4ccccc4)C[C@@](O)([C@@H](OC(=O)c4ccccc4)[C@H]21)C3(C)C [Docetaxel]
[1]
  IC50 (ln): -5.07
[2]
  IC50 (ln): -4.77
[3]
  IC50 (ln): -6.54
[4]
  IC50 (ln): -4.06
[5]
  IC50 (ln): -4.57
[6]
  IC50 (ln): -2.74
[7]
  IC50 (ln): -6.63
[8]
  IC50 (ln): -5.35
[9]
  IC50 (ln): -4.72
[10]
  IC50 (ln): -5.53
[11]
  IC50 (ln): -6.19
[12]
  IC50 (ln): -7
[13]
  IC50 (ln): -5.11
[14]
  IC50 (ln): -5.44
[15]
  IC50 (ln): -6.77
[16]
  IC50 (ln): -6.46
[17]
  IC50 (ln): -6.3
[18]
  IC50 (ln): -6.36
[19]
  IC50 (ln): -3.61
[20]
  IC50 (ln): -3.91
[21]
  IC50 (ln): -3.63

## COc1ncc(-c2ccc3nccc(-c4ccnnc4)c3c2)cc1NS(=O)(=O)c1ccc(F)cc1F [Omipalisib]
[1]
  IC50 (ln): -2.02
[2]
  IC50 (ln): -3.13
[3]
  IC50 (ln): -4.69
[4]
  IC50 (ln): -0.985
[5]
  IC50 (ln): -1.58
[6]
  IC50 (ln): -2.66
[7]
  IC50 (ln): -4.18
[9]
  IC50 (ln): -3.31
[10]
  IC50 (ln): -2.96
[11]
  IC50 (ln): -3.91
[12]
  IC50 (ln): -3.88
[13]
  IC50 (ln): -3.16
[14]
  IC50 (ln): -2.59
[15]
  IC50 (ln): -3.51
[16]
  IC50 (ln): -3.91
[17]
  IC50 (ln): -2.45
[18]
  IC50 (ln): -3.43
[19]
  IC50 (ln): -1.36
[20]
  IC50 (ln): -1.24
[21]
  IC50 (ln): -1.11
